According to article doi:10.1101/2024.12.09.627393 (bioRxiv, 2024):

System: CECR2-BRD
Test: 2D 15N-HSQC NMR chemical shift perturbation titration
Assay type: binding, human
Conditions: 15N-labeled CECR2-BRD, 25°C; 3% DMSO, or NVS-CECR2–1 including 3% DMSO
Procedure: CECR2-BRD was expressed and purified for NMR experiments following previously established methods, [18]. Briefly, uniformly labeled ^15N CECR2-BRD samples in buffer containing 20 mM Tris-HCl pH 6.8, 150 mM NaCl, 1 mM TCEP, and 10% D2O were purified at 0.30 mM for chemical-shift perturbation experiments.
All two-dimensional (2D) ^15N-HSQC (heteronuclear single quantum […]) experiments were acquired at 25°C using a 600 MHz Bruker AVANCE III spectrometer equipped with a z-gradient 1.7 mm TCI probe at the National Magnetic Resonance Facility at Madison (NMRFAM). The experimental setup for all 2D experiments was kept similar to our previous studies, [18]. […] Chemical Shift Perturbations (CSP) from the final titration point were calculated and normalized as described by Williamson[21], using the equation: Δδ=√ΔδH^2+α⋅ΔδN^2 Where α=0.2 for glycine, and 0.14 for all other residues. ΔδH and ΔδN represent chemical shifts in ppm for hydrogen and nitrogen atoms, respectively. […] These were calculated using the standard deviation (Δ ppm/ Standard deviation ppm, where standard deviation was calculated for each histone ligand) of the Euclidean chemical change of the residues as described previously, [18].

Row | Structure (SMILES) | Chemical shift perturbations of CECR2-BRD residues (in words)
1 | C[S+](C)[O-] [DMSO] | significant (> 1 Δppm) shifts in residues within the ZA loop and BC loop region
2 | CCCS(=O)(=O)c1nc(NC2CC2)cc(-c2ccc3c(ccn3C3CC(C)(C)NC(C)(C)C3)c2)n1 [NVS-CECR2–1] | CSPs in some residues within αA, αB and αC helices
